Source: US20260184675A1, “CHIRAL ISOMERIC SULFITE COMPOUND AND APPLICATION THEREOF” (Chengdu Hanova BioSciences Co., Ltd, priority 2024, published 2026)

Legend:
Assay type in all cases: in vivo
[1] = test system: eggs of Tetranychus urticae; test: Effect on hatching of eggs of Tetranychus urticae, leaf disc method; conditions: 5 ppm; for Hatching rate (%): 5 days after insecticide delivery
Method in brief: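 This leaf disc test measured inhibition of Tetranychus urticae egg hatching. Eggs laid on Vicia faba discs were counted microscopically, and the discs were soaked for 10 seconds in compound at 5 ppm, with clear water as control. They were incubated under controlled temperature and humidity with strong indirect light, avoiding condensate. Hatched eggs, leaf damage and developmental abnormalities were recorded five days after delivery.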

[2] = test system: eggs of Spodoptera litura; test: Effect on hatching of eggs of Spodoptera litura, egg piece soaking; conditions: 500 ppm; for Hatching rate (%), Replicate 1 / Hatching rate (%), Replicate 2 / Hatching rate (%), Replicate 3 / Number of unhatched larvae 4 days after insecticide delivery, Replicate 1 / Number of unhatched larvae 4 days after insecticide delivery, Replicate 2 / Number of unhatched larvae 4 days after insecticide delivery, Replicate 3: Spodoptera litura eggs; for Hatching rate (%), Replicate 1 / Hatching rate (%), Replicate 2 / Hatching rate (%), Replicate 3: 4 days after delivery; for Number of unhatched larvae 4 days after insecticide delivery, Replicate 1 / Number of unhatched larvae 4 days after insecticide delivery, Replicate 2 / Number of unhatched larvae 4 days after insecticide delivery, Replicate 3: soaked 10 minutes
Method in brief: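 Egg pieces of about 60 eggs were soaked 10 min in test agent at 500 ppm, blotted, then held singly at 24±1 °C, 80±10% RH, 12:12 L:D. Hatched and unhatched eggs were counted on day 4 to give hatching rate and control effect; 3 replicates.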

eggs of Thrips = test: Effect on hatching of eggs of Thrips, leaf disc method; conditions: 100 ppm; for Hatching rate (%): 5 days after insecticide delivery
Method in brief: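 Egg-bearing Vicia faba leaf discs (diameter 2.0 cm, wetted filter paper beneath) were counted microscopically for baseline eggs. They were then soaked for 10 seconds in water or in test agent at 100 ppm. After moist incubation in lidded dishes, with controlled temperature and humidity and adequate indirect light, hatched larvae were counted five days post-delivery to judge hatching inhibition.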

eggs of Aleyrodidae = test: Effect on hatching of eggs of Aleyrodidae, leaf disc method; conditions: 10 ppm; for Hatching rate (%), Replicate 1 / Hatching rate (%), Replicate 2 / Hatching rate (%), Replicate 3 / Number of hatched larvae 5 days after insecticide delivery, Replicate 1 / Number of hatched larvae 5 days after insecticide delivery, Replicate 2 / Number of hatched larvae 5 days after insecticide delivery, Replicate 3: Aleyrodidae eggs; for Hatching rate (%), Replicate 1 / Hatching rate (%), Replicate 2 / Hatching rate (%), Replicate 3: 5 days after delivery; for Number of hatched larvae 5 days after insecticide delivery, Replicate 1 / Number of hatched larvae 5 days after insecticide delivery, Replicate 2 / Number of hatched larvae 5 days after insecticide delivery, Replicate 3: leaf disc
Method in brief: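 Leaf discs carrying Aleyrodidae eggs were first examined microscopically to record a baseline egg count. They were then dipped for 10 seconds in compound solution at 10 ppm or in clear water, taken out, and incubated with humidity maintained. Five days after delivery, the number of hatched larvae was recorded to assess hatching inhibition.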

[3] = Replicate 1, listed as 1′-(R, S)
[4] = Replicate 2, listed as 1′-(R, S)
[5] = Replicate 3, listed as 1′-(R, S)
[6] = Replicate 1, listed as 19-(S, S)
[7] = Replicate 2, listed as 19-(S, S)
[8] = Replicate 3, listed as 19-(S, S)

CC(COc1ccc(Cl)cc1Cl)OS(=O)OCCF [1′-(R,S)]
inhibitory activity on the hatching of eggs of Tetranychus urticae (in words) [1]: strong inhibitory activities
Hatching rate (%) [1, 3]: 0.00%
Hatching rate (%) [1, 4]: 0.00%
Number of hatched larvae 5 days after insecticide delivery [1, 3]: 0
Number of hatched larvae 5 days after insecticide delivery [1, 4]: 0
inhibitory activity on the hatching of eggs of Spodoptera litura (in words) [2]: good inhibitory activities
Hatching rate (%), Replicate 1 ([2]; listed as 1′-(R, S)): 28.33%
Hatching rate (%), Replicate 2 ([2]; listed as 1′-(R, S)): 25.00%
Hatching rate (%), Replicate 3 ([2]; listed as 1′-(R, S)): 20.34%
Number of unhatched larvae 4 days after insecticide delivery, Replicate 1 ([2]; listed as 1′-(R, S)): 43
Number of unhatched larvae 4 days after insecticide delivery, Replicate 2 ([2]; listed as 1′-(R, S)): 48
Number of unhatched larvae 4 days after insecticide delivery, Replicate 3 ([2]; listed as 1′-(R, S)): 47
inhibitory activity on the hatching of eggs of Thrips (in words) (eggs of Thrips): strong inhibitory activities
Hatching rate (%) (eggs of Thrips; [3]): 0.00%
Hatching rate (%) (eggs of Thrips; [4]): 0.00%
Hatching rate (%) (eggs of Thrips; [5]): 0.00%
Number of hatched larvae 5 days after insecticide delivery (eggs of Thrips; [3]): 0
Number of hatched larvae 5 days after insecticide delivery (eggs of Thrips; [4]): 0
Number of hatched larvae 5 days after insecticide delivery (eggs of Thrips; [5]): 0
inhibitory activity on the hatching of eggs of Aleyrodidae (in words) (eggs of Aleyrodidae): strong inhibitory activities
Hatching rate (%), Replicate 1 (eggs of Aleyrodidae; listed as 1′-(R, S)): 0.00%
Hatching rate (%), Replicate 2 (eggs of Aleyrodidae; listed as 1′-(R, S)): 0.00%
Hatching rate (%), Replicate 3 (eggs of Aleyrodidae; listed as 1′-(R, S)): 0.00%
Number of hatched larvae 5 days after insecticide delivery, Replicate 1 (eggs of Aleyrodidae; listed as 1′-(R, S)): 0
Number of hatched larvae 5 days after insecticide delivery, Replicate 2 (eggs of Aleyrodidae; listed as 1′-(R, S)): 0
Number of hatched larvae 5 days after insecticide delivery, Replicate 3 (eggs of Aleyrodidae; listed as 1′-(R, S)): 0

CC[C@@H](COc1ccc(Cl)cc1Cl)OS(=O)OCCF (stereo partly drawn) [19-(S,R)]
inhibitory activity on the hatching of eggs of Tetranychus urticae (in words) [1]: strong inhibitory activities
Hatching rate (%) ([1]; Replicate 1): 0.00%
Hatching rate (%) ([1]; Replicate 2): 0.00%
Number of hatched larvae 5 days after insecticide delivery ([1]; Replicate 1): 0
Number of hatched larvae 5 days after insecticide delivery ([1]; Replicate 2): 0
inhibitory activity on the hatching of eggs of Spodoptera litura (in words) [2]: good inhibitory activities
Hatching rate (%), Replicate 1 [2]: 15.79%
Hatching rate (%), Replicate 2 [2]: 15.38%
Hatching rate (%), Replicate 3 [2]: 15.38%
Number of unhatched larvae 4 days after insecticide delivery, Replicate 1 [2]: 48
Number of unhatched larvae 4 days after insecticide delivery, Replicate 2 [2]: 55
Number of unhatched larvae 4 days after insecticide delivery, Replicate 3 [2]: 44
inhibitory activity on the hatching of eggs of Thrips (in words) (eggs of Thrips): strong inhibitory activities
Hatching rate (%) (eggs of Thrips; Replicate 1): 0.00%
Hatching rate (%) (eggs of Thrips; Replicate 2): 0.00%
Hatching rate (%) (eggs of Thrips; Replicate 3): 0.00%
Number of hatched larvae 5 days after insecticide delivery (eggs of Thrips; Replicate 1): 0
Number of hatched larvae 5 days after insecticide delivery (eggs of Thrips; Replicate 2): 0
Number of hatched larvae 5 days after insecticide delivery (eggs of Thrips; Replicate 3): 0
inhibitory activity on the hatching of eggs of Aleyrodidae (in words) (eggs of Aleyrodidae): strong inhibitory activities
Hatching rate (%), Replicate 1 (eggs of Aleyrodidae): 0.00%
Hatching rate (%), Replicate 2 (eggs of Aleyrodidae): 0.00%
Hatching rate (%), Replicate 3 (eggs of Aleyrodidae): 0.00%
Number of hatched larvae 5 days after insecticide delivery, Replicate 1 (eggs of Aleyrodidae): 0
Number of hatched larvae 5 days after insecticide delivery, Replicate 2 (eggs of Aleyrodidae): 0
Number of hatched larvae 5 days after insecticide delivery, Replicate 3 (eggs of Aleyrodidae): 0

CC[C@H](COS(=O)OCCF)Oc1ccc(Cl)cc1Cl (stereo partly drawn) [19′-(R,S)]
Hatching rate (%) ([1]; Replicate 1): 12.66%
Hatching rate (%) ([1]; Replicate 2): 13.25%
Number of hatched larvae 5 days after insecticide delivery ([1]; Replicate 1): 10
Number of hatched larvae 5 days after insecticide delivery ([1]; Replicate 2): 11
Hatching rate (%), Replicate 1 [2]: 51.67%
Hatching rate (%), Replicate 2 [2]: 50.77%
Hatching rate (%), Replicate 3 [2]: 50.00%
Number of unhatched larvae 4 days after insecticide delivery, Replicate 1 [2]: 30
Number of unhatched larvae 4 days after insecticide delivery, Replicate 2 [2]: 32
Number of unhatched larvae 4 days after insecticide delivery, Replicate 3 [2]: 27
Hatching rate (%) (eggs of Thrips; Replicate 1): 9.02%
Hatching rate (%) (eggs of Thrips; Replicate 2): 9.18%
Hatching rate (%) (eggs of Thrips; Replicate 3): 8.74%
Number of hatched larvae 5 days after insecticide delivery (eggs of Thrips; Replicate 1): 12
Number of hatched larvae 5 days after insecticide delivery (eggs of Thrips; Replicate 2): 9
Number of hatched larvae 5 days after insecticide delivery (eggs of Thrips; Replicate 3): 9
Hatching rate (%), Replicate 1 (eggs of Aleyrodidae): 10.32%
Hatching rate (%), Replicate 2 (eggs of Aleyrodidae): 9.40%
Hatching rate (%), Replicate 3 (eggs of Aleyrodidae): 11.49%
Number of hatched larvae 5 days after insecticide delivery, Replicate 1 (eggs of Aleyrodidae): 13
Number of hatched larvae 5 days after insecticide delivery, Replicate 2 (eggs of Aleyrodidae): 11
Number of hatched larvae 5 days after insecticide delivery, Replicate 3 (eggs of Aleyrodidae): 10

CCC(COc1ccc(Cl)cc1Cl)OS(=O)OCCF [19-(S,S)]
Hatching rate (%) [1, 6]: 17.48%
Hatching rate (%) [1, 7]: 14.74%
Number of hatched larvae 5 days after insecticide delivery [1, 6]: 18
Number of hatched larvae 5 days after insecticide delivery [1, 7]: 14
Hatching rate (%), Replicate 1 ([2]; listed as 19-(S, S)): 50.00%
Hatching rate (%), Replicate 2 ([2]; listed as 19-(S, S)): 51.72%
Hatching rate (%), Replicate 3 ([2]; listed as 19-(S, S)): 50.91%
Number of unhatched larvae 4 days after insecticide delivery, Replicate 1 ([2]; listed as 19-(S, S)): 30
Number of unhatched larvae 4 days after insecticide delivery, Replicate 2 ([2]; listed as 19-(S, S)): 28
Number of unhatched larvae 4 days after insecticide delivery, Replicate 3 ([2]; listed as 19-(S, S)): 27
Hatching rate (%) (eggs of Thrips; [6]): 14.4%
Hatching rate (%) (eggs of Thrips; [7]): 13.89%
Hatching rate (%) (eggs of Thrips; [8]): 11.46%
Number of hatched larvae 5 days after insecticide delivery (eggs of Thrips; [6]): 18
Number of hatched larvae 5 days after insecticide delivery (eggs of Thrips; [7]): 15
Number of hatched larvae 5 days after insecticide delivery (eggs of Thrips; [8]): 11
Hatching rate (%), Replicate 1 (eggs of Aleyrodidae; listed as 19-(S, S)): 12.36%
Hatching rate (%), Replicate 2 (eggs of Aleyrodidae; listed as 19-(S, S)): 12.03%
Hatching rate (%), Replicate 3 (eggs of Aleyrodidae; listed as 19-(S, S)): 12.28%
Number of hatched larvae 5 days after insecticide delivery, Replicate 1 (eggs of Aleyrodidae; listed as 19-(S, S)): 11
Number of hatched larvae 5 days after insecticide delivery, Replicate 2 (eggs of Aleyrodidae; listed as 19-(S, S)): 16
Number of hatched larvae 5 days after insecticide delivery, Replicate 3 (eggs of Aleyrodidae; listed as 19-(S, S)): 14
